This passage reports IC50 results from PubChem BioAssay AID651969 (The Scripps Research Institute Molecular Screening Center, 2013).

The source made the active and inactive calls. How the calls were made is not given here.

In this test the test system is StAR promoter luciferase reporter cells, luminescence counterscreen. The experiment in a line: StAR promoter reporter inhibition counter-screen, dose response, counter-screen for LRH-1 inverse agonist project, cell-based, luminescence, luciferase reporter (AID 651969). In general terms: A counterscreen serves to expose hits that act by an unwanted route or on another target.

The term IC50 denotes the concentration that inhibits the measured activity by half. Consider `COc1ccc(NC(=O)COC(=O)c2cc(S(=O)(=O)N3CCCC3)ccc2O)cc1`, for which the IC50 was > 35.9 µM (inactive).
